Results published in ChEMBL document CHEMBL1268978, “Arylpiperazine-containing pyrimidine 4-carboxamide derivatives targeting serotonin 5-HT(2A), 5-HT(2C), and the serotonin transporter as a potential antidepressant” (Bioorg Med Chem Lett, 2010).
Active and inactive are the calls of the source. The rule behind the calls is not given here.

How the values were obtained:
[1] = target: 5-hydroxytryptamine receptor 2A (Homo sapiens, UniProt P28223); experiment: Displacement of [3H]ketanserin from human recombinant 5HT2A receptor expressed in CHO-K1 cells; format: cell-based
[2] = target: T1, 5-hydroxytryptamine receptor 2C (Homo sapiens, UniProt P28335); experiment: Displacement of [3H]mesulergine from human recombinant 5HT2C receptor expressed in CHO-K1 cells; format: cell-based
T1 sequence (P28335 whole entry): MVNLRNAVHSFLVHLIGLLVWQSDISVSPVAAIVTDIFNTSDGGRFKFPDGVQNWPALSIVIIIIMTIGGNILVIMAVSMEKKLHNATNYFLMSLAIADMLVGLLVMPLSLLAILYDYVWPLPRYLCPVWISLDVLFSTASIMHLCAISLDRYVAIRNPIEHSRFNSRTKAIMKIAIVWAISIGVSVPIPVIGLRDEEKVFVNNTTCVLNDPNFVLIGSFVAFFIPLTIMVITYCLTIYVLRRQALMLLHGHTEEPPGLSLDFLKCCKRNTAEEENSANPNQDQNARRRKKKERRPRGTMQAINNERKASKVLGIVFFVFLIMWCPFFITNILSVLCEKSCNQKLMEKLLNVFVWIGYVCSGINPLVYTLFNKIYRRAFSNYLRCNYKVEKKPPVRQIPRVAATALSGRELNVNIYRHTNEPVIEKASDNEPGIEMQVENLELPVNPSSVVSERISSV

[3] = target: Sodium-dependent serotonin transporter (Homo sapiens, UniProt P31645); experiment: Displacement of [3H]imipramine from human recombinant SERT receptor expressed in HEK293 cells; format: cell-based
Mus musculus [4] = experiment: Antidepressant activity in mouse at 25 mg/kg, ip administered 30 mins before test by forced swimming test; format: functional, organism-based; design: dose 25 mg/kg
Mus musculus [5] = experiment: Toxicity in mouse assessed as induction of hyperactivity measured for 30 mins at 25 mg/kg, ip measured by spontaneous locomotor activity assay; format: organism-based; design: dose 25 mg/kg, route intraperitoneal; details: in vivo, 0.5 h
Mus musculus [6] = experiment: Toxicity in mouse assessed as induction of hypoactivity measured for 30 mins at 25 mg/kg, ip measured by spontaneous locomotor activity assay; format: organism-based; design: dose 25 mg/kg, route intraperitoneal; details: in vivo, 0.5 h
[7] = target: Voltage-gated inwardly rectifying potassium channel KCNH2 (Homo sapiens, UniProt Q12809); experiment: Inhibition of human ERG channel
Cytochrome P450 1A2 = target: T2, Cytochrome P450 1A2 (Homo sapiens, UniProt P05177); experiment: Inhibition of CYP1A2; format: ADME
T2 sequence (P05177 whole entry): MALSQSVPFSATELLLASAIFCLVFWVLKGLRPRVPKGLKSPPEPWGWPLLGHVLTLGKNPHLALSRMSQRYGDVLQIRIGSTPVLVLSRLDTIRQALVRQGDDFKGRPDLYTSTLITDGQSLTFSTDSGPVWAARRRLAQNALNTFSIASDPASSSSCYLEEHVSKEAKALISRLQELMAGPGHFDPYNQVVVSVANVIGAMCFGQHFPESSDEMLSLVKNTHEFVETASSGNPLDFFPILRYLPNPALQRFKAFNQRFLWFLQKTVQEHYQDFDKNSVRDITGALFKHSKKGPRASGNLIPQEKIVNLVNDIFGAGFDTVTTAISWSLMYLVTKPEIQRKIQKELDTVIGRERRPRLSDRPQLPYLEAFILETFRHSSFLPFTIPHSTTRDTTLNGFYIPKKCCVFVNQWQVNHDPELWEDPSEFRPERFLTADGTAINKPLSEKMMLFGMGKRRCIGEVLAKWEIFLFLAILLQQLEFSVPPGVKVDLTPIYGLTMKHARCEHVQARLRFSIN

Cytochrome P450 2D6 = Cytochrome P450 2D6 (Homo sapiens, UniProt P10635); experiment: Inhibition of CYP2D6; format: ADME
Cytochrome P450 2C9 = Cytochrome P450 2C9 (Homo sapiens, UniProt P11712); experiment: Inhibition of CYP2C9; format: ADME
Cytochrome P450 3A4 = Cytochrome P450 3A4 (Homo sapiens, UniProt P08684); experiment: Inhibition of CYP3A4; format: ADME
Sequence of Cytochrome P450 3A4 (P08684 whole entry): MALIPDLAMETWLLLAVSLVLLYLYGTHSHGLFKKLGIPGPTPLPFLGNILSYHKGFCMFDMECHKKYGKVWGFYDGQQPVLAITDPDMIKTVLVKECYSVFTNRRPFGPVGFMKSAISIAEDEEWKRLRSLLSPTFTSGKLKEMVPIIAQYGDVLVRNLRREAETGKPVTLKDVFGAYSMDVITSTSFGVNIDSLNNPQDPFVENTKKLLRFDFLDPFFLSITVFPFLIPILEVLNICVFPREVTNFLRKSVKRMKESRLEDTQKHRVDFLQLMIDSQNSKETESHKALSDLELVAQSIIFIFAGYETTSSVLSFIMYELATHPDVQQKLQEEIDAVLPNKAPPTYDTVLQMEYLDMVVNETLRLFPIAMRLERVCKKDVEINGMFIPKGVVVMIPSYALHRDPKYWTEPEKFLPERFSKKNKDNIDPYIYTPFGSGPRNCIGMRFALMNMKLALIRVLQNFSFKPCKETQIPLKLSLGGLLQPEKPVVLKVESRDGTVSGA

Sequence of 5-hydroxytryptamine receptor 2A (P28223 whole entry): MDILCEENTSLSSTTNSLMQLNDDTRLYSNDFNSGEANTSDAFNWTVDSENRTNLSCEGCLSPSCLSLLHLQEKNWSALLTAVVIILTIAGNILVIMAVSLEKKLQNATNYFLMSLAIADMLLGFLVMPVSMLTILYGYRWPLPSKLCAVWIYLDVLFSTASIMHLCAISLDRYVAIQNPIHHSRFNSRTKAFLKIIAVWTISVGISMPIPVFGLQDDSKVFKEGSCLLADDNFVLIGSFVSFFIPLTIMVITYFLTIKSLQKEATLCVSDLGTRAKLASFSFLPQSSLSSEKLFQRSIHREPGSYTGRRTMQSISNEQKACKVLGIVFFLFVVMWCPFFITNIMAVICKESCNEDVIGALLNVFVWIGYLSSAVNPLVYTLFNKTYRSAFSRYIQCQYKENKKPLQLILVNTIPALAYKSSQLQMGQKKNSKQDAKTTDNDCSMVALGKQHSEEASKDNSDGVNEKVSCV
Sequence of Sodium-dependent serotonin transporter (P31645 whole entry): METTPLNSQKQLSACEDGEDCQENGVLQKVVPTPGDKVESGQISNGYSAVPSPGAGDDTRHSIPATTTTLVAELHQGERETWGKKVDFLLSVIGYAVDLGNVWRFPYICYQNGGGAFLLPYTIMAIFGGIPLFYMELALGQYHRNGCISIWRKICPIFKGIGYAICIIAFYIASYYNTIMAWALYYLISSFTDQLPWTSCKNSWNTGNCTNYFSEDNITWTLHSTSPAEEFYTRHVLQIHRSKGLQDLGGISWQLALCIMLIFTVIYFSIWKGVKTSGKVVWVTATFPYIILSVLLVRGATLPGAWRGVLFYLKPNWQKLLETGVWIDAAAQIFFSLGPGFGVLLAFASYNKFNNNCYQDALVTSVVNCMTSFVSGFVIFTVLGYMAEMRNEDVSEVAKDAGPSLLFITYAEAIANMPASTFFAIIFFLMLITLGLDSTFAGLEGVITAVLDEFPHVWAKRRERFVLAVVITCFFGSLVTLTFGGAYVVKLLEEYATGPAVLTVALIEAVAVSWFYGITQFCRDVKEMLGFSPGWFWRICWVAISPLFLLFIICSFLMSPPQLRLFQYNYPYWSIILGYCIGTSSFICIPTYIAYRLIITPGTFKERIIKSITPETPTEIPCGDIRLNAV
Sequence of Voltage-gated inwardly rectifying potassium channel KCNH2 (Q12809 whole entry): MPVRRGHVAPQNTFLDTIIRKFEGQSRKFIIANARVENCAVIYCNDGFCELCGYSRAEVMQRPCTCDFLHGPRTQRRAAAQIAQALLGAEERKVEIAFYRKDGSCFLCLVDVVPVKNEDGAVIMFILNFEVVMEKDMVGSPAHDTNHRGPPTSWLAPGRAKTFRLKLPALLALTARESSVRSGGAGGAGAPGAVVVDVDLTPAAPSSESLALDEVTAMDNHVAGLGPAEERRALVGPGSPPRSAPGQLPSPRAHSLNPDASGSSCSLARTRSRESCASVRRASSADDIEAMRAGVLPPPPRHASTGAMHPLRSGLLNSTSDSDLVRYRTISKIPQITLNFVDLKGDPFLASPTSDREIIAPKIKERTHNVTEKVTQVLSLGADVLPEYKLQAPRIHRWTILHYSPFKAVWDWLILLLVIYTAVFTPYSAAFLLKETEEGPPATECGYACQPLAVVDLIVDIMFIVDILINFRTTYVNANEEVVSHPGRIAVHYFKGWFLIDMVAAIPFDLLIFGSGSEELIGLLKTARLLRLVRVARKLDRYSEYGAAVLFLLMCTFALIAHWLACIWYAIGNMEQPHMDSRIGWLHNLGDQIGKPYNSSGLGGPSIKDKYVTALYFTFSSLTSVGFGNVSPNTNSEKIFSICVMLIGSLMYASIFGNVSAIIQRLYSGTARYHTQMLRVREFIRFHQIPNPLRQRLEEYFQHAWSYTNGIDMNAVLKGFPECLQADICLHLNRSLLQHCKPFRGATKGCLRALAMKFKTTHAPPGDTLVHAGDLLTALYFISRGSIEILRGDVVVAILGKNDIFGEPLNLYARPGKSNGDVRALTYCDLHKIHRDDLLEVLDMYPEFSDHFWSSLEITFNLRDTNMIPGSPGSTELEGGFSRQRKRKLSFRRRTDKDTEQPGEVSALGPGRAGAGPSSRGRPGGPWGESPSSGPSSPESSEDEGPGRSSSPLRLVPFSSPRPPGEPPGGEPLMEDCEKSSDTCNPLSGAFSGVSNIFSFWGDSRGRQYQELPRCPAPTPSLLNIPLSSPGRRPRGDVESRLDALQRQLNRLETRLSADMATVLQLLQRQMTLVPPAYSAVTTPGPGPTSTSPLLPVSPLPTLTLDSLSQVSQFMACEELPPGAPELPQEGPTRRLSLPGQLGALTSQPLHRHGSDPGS
Sequence of Cytochrome P450 2C9 (P11712 whole entry): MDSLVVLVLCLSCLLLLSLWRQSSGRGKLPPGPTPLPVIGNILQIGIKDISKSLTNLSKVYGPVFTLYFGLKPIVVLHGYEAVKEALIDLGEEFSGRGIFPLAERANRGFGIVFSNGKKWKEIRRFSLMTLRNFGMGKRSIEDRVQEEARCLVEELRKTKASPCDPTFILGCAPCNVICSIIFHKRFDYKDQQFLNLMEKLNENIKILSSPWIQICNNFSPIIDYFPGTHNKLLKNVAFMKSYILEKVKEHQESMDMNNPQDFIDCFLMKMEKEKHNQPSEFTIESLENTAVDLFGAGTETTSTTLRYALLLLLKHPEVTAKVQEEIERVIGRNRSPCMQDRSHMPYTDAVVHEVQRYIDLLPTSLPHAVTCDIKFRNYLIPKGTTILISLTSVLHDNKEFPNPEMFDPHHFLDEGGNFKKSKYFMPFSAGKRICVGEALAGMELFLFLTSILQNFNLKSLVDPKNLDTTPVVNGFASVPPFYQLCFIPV
Sequence of Cytochrome P450 2D6 (P10635 whole entry): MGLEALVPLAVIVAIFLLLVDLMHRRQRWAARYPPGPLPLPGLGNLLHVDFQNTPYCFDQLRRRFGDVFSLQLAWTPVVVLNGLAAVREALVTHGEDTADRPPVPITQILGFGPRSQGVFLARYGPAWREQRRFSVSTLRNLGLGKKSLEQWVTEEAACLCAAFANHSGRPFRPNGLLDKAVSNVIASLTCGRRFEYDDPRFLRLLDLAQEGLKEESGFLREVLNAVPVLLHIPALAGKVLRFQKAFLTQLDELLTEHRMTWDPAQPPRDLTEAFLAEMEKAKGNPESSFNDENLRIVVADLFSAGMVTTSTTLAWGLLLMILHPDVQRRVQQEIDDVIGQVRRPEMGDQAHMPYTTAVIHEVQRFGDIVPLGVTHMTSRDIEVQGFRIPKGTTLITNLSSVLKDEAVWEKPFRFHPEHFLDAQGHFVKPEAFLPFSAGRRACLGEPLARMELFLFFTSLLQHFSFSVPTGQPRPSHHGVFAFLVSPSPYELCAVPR

SMILES	IC50 [1] [µM]	IC50 [2] [µM]	IC50 [3] [µM]	Activity (Mus musculus [4])	Activity (Mus musculus [5])	Activity (Mus musculus [6])	IC50 [7] [µM]	IC50 (Cytochrome P450 1A2) [µM]	IC50 (Cytochrome P450 2D6) [µM]	IC50 (Cytochrome P450 2C9) [µM]	IC50 (Cytochrome P450 3A4) [µM]
Cc1nc(C(=O)NCCCN2CCN(c3cccc(Cl)c3Cl)CC2)cc(C(C)C)n1.Cl	0.113	0.227	0.644	Active	Non-toxic	Non-toxic	5.4	–	–	–	–
COc1c(C)nc(C)nc1C(=O)NCCN1CCN(c2cccc(Cl)c2Cl)CC1.Cl	0.263	0.135	0.646	–	Non-toxic	Non-toxic	–	–	–	–	–
Cc1nc(C(=O)NCCCN2CCN(c3cccc(C)c3C)CC2)cc(C(C)(C)C)n1.Cl	0.458	0.575	0.73	–	Non-toxic	Non-toxic	5.9	–	–	–	–
COc1c(C)nc(C)nc1C(=O)NCCN1CCN(c2cccc(C)c2C)CC1.Cl	0.842	1.27	2.1	–	Non-toxic	Non-toxic	–	–	–	–	–
CSc1nc(C)cc(C(=O)NCCN2CCN(c3cccc(C)c3C)CC2)n1.Cl	0.047	0.148	1.01	Active	Non-toxic	Non-toxic	–	> 20	> 20	> 20	> 20
Cc1cc(C(=O)NCCCN2CCN(c3cccc(Cl)c3Cl)CC2)nc(C)n1.Cl	0.166	0.61	0.289	Active	Non-toxic	–	–	–	–	–	–
Cc1nc(C(=O)NCCCN2CCN(c3cccc(Cl)c3Cl)CC2)cc(-c2ccccc2)n1	0.035	0.03	0.588	–	–	–	–	–	–	–	–
Cc1cc(C(=O)NCCCN2CCN(c3cccc(C)c3C)CC2)nc(C(C)(C)C)n1.Cl	0.274	2.69	0.537	–	Non-toxic	Non-toxic	–	–	–	–	–
Cc1cc(C(=O)NCCN2CCN(c3cccc(C)c3C)CC2)nc(C(C)(C)C)n1.Cl	0.069	0.494	6.37	–	Non-toxic	Non-toxic	–	–	–	–	–
CSc1nc(C)cc(C(=O)NCCN2CCN(c3cccc(Cl)c3Cl)CC2)n1.Cl	0.055	0.081	0.881	Active	Non-toxic	Non-toxic	–	–	–	–	–
CSc1nc(C)cc(C(=O)NCCCN2CCN(c3cccc(C)c3C)CC2)n1.Cl	0.054	1.17	0.394	Active	Non-toxic	Non-toxic	–	–	–	–	–
COc1c(C)nc(C)nc1C(=O)NCCCN1CCN(c2cccc(C)c2C)CC1.Cl	0.744	2.05	0.892	–	–	Toxic	–	–	–	–	–
Cc1cc(C(=O)NCCCN2CCN(c3cccc(C)c3C)CC2)nc(C2CC2)n1.Cl	0.256	1.18	0.347	–	Non-toxic	Non-toxic	–	–	–	–	–
Cc1nc(C(=O)NCCCN2CCN(c3cccc(C)c3C)CC2)cc(C(C)C)n1.Cl	0.49	1.55	1.21	–	Non-toxic	Non-toxic	–	–	–	–	–
